Where two headings read alike, the source gives them in different places.
Columns and labels:
physchem = assay type: physicochemical; conditions: octanol/water
From the text: It is known that brain capillary permeability for many compounds is related to their octanol/water partition coefficient (P) and molecular weight. [[…]. Med. […] [Dischino, […]., and […]. Nucl. […] […]. Drug transfer across the blood brain barrier. In: Topics in Pharmaceutical Sciences. Ed.: Breimer, D. D., and […]. […] […]., and Rapoport, S. I. In: Handbook of Physiology. The Cardiovascular System. Microcirculation. Bethesda, Md.: Am. Physiol. Soc., sect. 2, Vol. IV, […]. 969-1000, 1984; […]. In: Implications of Blood-Brain Barrier and Its Manipulation. Basic Science Aspects. Ed. by Neuwelt, E., New York: Plenum, Vol. 1, […]. 132-55, 1988] […] [Xu, […]., Knaus, E. E., and Wiebe, L. I. In: Advances in Radiopharmacology. […]., Snowdon, G. M., Boniface, G. R., Univ. of Wollongong Printing Service, Wollongong, Australia, pp. 283-298, 1990] […] […]).

[1] = cited from earlier work; for lipophilicity and blood-brain barrier permeability compared with FIAU: compared with FIAU (FAIU [sic]), Iwashina et al. 1988
[2] = Calculated permeability surface area product (PS) of the cerebral capillaries; parameters: unit not given here; conditions: for PS*: calculated from measured log P and MW: log(PS)=5.2+log(P·Dm); for PS+: calculated from published log P and MW: log(PS)=5.2+log(P·Dm)
From the text: Passage of the nucleosides across the blood brain barrier (BBB) is an important factor to consider in the design of radiolabelled 2'-fluoro-nucleoside analogues for imaging HSV1-TK expression in the brain. […] It is known that brain capillary permeability for many compounds is related to their octanol/water partition coefficient (P) and molecular weight. [Levin, V. N. J. Med. Chem., 23: 682-4, 1980] Several authors have described a relationship between the brain capillary permeability and log P or log P·Dm, where Dm is a measure of diffusibility. […] [Dischino, D. D., Welch, M. J., Kilbourn, M. N., and Raichle, M. E., J. Nucl. Med., 24: 1030-8, 1983] […] Fenstermacher, J. D. Drug transfer across the blood brain barrier. In: Topics in Pharmaceutical Sciences. Ed.: Breimer, D. D., and Speiser, P. Amsterdam: Elsevier, pp. 143-54, 1983; Fenstermacher, J. D., and Rapoport, S. I. In: Handbook of Physiology. The Cardiovascular System. Microcirculation. Bethesda, Md.: Am. Physiol. Soc., sect. 2, Vol. IV, pt. 2, chapt. 21, p. 969-1000, 1984; Fenstermacher, J. D. In: Implications of Blood-Brain Barrier and Its Manipulation. Basic Science Aspects. Ed. by Neuwelt, E., New York: Plenum, Vol. 1, Chapt. 6, pp. 132-55, 1988]

HSV1-TK [3] = target: T1, HSV1-TK (Human alphaherpesvirus 1 strain 17, UniProt P0DTH5); assay: Single 120 minute paired accumulation of FIAU and IUdR by RG2TK+ and RG2 cells; assay type: cell-based, herpes simplex virus; conditions: Data from FIG. 6A
T1 sequence (P0DTH5 whole entry): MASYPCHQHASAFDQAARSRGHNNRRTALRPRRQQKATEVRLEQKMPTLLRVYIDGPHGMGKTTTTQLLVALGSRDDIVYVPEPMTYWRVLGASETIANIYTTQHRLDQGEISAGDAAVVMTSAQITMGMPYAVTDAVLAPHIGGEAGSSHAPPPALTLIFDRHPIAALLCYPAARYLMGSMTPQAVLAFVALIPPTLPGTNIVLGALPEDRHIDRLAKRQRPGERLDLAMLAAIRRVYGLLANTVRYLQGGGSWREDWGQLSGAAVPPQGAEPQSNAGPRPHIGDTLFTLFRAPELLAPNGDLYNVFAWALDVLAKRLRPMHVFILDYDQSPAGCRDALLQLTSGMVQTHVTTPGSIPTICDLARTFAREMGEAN
Experimental: The processing of cells and incubation medium was the same as that described above. A portion of the harvested cells was also processed for acid-insoluble (10% TCA) radioactivity. Decay corrected ^123 I-radioactivity was measured in a Packard AutoGamma 5550 Spectrometer. Samples were stored for 1 week to allow for ^123 I decay (12 half lives), and recounted afterwards in the Packard B1600 TriCarb beta spectrometer to determine ^3 H- and ^14 C-radioactivity.
All radioactivity measurements were expressed as a percent of administered dose per gram of tissue or per unit volume of fluid as described above.
(§1) Data analysis. […] These two related measures are useful to evaluate the intensity of the images (e.g., high "sensitivity") and the ability to differentiate between HSV1-TK and endogenous-TK in the images (e.g., high "selectivity"). The "selectivity" measure is not interpreted as a relative sensitivity (i.e., a value of 1 indicating equal sensitivity) of the substrate to HSV1-TK vs. endogenous-TK. […] They are intended for the direct comparison of substrates only.

RG2TK+ and RG2 tumors = assay: Tissue sampling of FIAU- and IUdR-derived radioactivity in i.c. and s.c. RG2TK+ and RG2 tumors; assay type: in vivo, rat; conditions: 24 h; for Sensitivity* (uptake in RG2TK+ tumor - uptake in RG2 tumor)/(HSV1TK mRNA/S28 RNA IOD in RG2TK+ cells): percent dose per gram
Experimental: Animal preparation and tumor inoculation Two male Fisher 344 rats weighing 250±20 g were anesthetized with a gas mixture consisting of 2% Isoflurane, 70% nitrous oxide and 30% oxygen. A 2% lidocaine gel was applied to the ears and the head was fixed with a stereotaxic device. After midline scalp incision, a burr hole was made through the skull 1 mm posterior and 3 mm lateral to the bregma. The tumor cell suspensions were aspirated into a 50 μl gas tight Hamilton syringe (Ga. 25) and attached to a stereotaxic device. The syringe needle was then inserted 6 mm deep into the caudate nucleus and the cell suspension (10^5 cells in 10 μl) was slowly injected over 2 minutes. RG2TK+ cells were injected into the left hemisphere, and RG2 cells were injected into the right hemisphere. Bone wax was applied to cover the skull defect and the scalp was closed with 4.0 silk suture. Subcutaneous inoculations (10^6 cells in 50 μl) were also performed (RG2TK+ cells into the left flank and RG2 cells into the right flank). After the procedure, the animals were marked and placed in standard cages with water and Rodent LabChow #5001 (Purina Mills, Inc.) ad libitum. Comparison of different "marker substrates" for identifying HSV1-TK expression in animals After 10 days of tumor growth, both animals received i.v. injections of [^123 I]-IUdR (400 uCi) and [^14 C]-FIAU (10 uCi). Radioactivity was allowed to clear from the body over 24 hours to reduce tissue background activity, predominantly due to radiolabelled iodide, the major metabolite of [^123 I]-IUdR. [Tjuvajev, J. G., Muraki, A., Ginos, J., Berk, J., Koutcher, J., Ballon, D., Beattie, B., Finn, R., and Biasberg, R., J. Nucl. Med., 34: 1152-62, 1993; Tjuvajev, J. G., Macapinlac, H. A., Daghighian, F., Scott, A. M., ginos, J. Z., Finn, R. D., Kothari, P., Desai, R., Zhang, Z., Beattie, B., Graham, M., Larson, S., and Blasberg, R. G., J. Nucl. Med., 35: 1407-17, 1994] The rats were killed at 24 hours under anesthesia; samples of tumor and adjacent tissue were disected and weighed, blood and plasma were obtained, and radioactivity was measured. Decay corrected ^123 I-radioactivity was assayed in a Packard AutoGamma 5550 Spectrometer; samples were stored in a refrigerator for 1 week to allow for ^123 I decay (>12 half lives) and ^14 C-radioactivity was measured in a Packard B1600 TriCarb beta spectrometer using external standard quench correction. Sample radioactivity was expressed as a percent of administered dose per gram of tissue of per unit volume of fluid.

HSV1-TK [4] = target: T1, HSV1-TK; assay: Accumulation of radiolabelled marker substrates in RG2TK+ transduced and RG2 wild-type cells, normalized to TdR; assay type: cell-based, herpes simplex virus
Experimental: Source of radiolabelled "marker substrates". […] No carrier-added 5-[^123 I]-deoxyuridine (IUdR) was prepared by reacting 2-deoxyuridine (UdR) with carrier-free ^123 I-labelled sodium iodide in an iodogen coated reaction vial.
Comparison of "marker substrates" for identifying HSV1-tk gene expression in tissue culture. […] Each of these substrates were developed for or used as an anti-viral agent; they are phosphorylated by HSV1-TK and can be radiolabelled for noninvasive imaging.
Wild-type (nontransduced) RG2 cells were studied as a reference control. […] The cells were dislodged from the Petri dishes with a soft scraper, poured into 15 ml conical tubes, centrifuged and the medium aspirated. The tubes were cut to facilitate removing cells; they were blotted, placed in pre-weighed vials, weighed and prepared for counting. Samples were assayed for ^3 H- and ^14 C-radioactivity using a Packard B1600 TriCarb beta spectrometer using dual-channel and external standard splash and quench correction techniques. The medium was also counted before and following incubation. The data was expressed as a harvested cell-to-medium concentration ratio (dpm/g cells.div.dpm/ml medium).
as §1

[5] = log P values published by Xu, et al.

| Structure (SMILES) | logP (physchem) | PS* [2] | PS+ [2] | other results |
| --- | --- | --- | --- | --- |
| Cc1cn([C@H]2C[C@H](O)[C@@H](CO)O2)c(=O)[nH]c1=O [TdR, thymidine] | -0.8 |  |  | Log P+ ([1]; octanol/water): -1.12 |
| O=c1[nH]c(=O)n([C@@H]2O[C@H](CO)[C@@H](O)[C@@H]2F)cc1F [FFAU, 2'-fluoro-5-fluoro-1-β-D-arabinofuranosyl-uracil] | -1.09 | 0.08 |  |  |
| CC(C)(N)C(=O)O [AIB] | -2.48 |  | 0.00052 |  |
| O=c1[nH]c(=O)n([C@@H]2O[C@H](CO)[C@@H](O)[C@H]2F)cc1I [FIRU, 2'-fluoro-5-iodo-1-β-D-ribofuranosyl-uracil] |  | 0.45 |  |  |
| O=c1[nH]c(=O)n([C@H]2C[C@H](O)[C@@H](CO)O2)cc1F [5-FUdR] | -1.52 | 0.03 | 0.03 | Log P+ ([1]; octanol/water): -1.51 |
| O=c1[nH]c(=O)n([C@H]2C[C@H](O)[C@@H](CO)O2)cc1/C=C/I [5-IVdU] |  | 10.29 |  | Log P* (physchem): 1.10 |
| O=c1ccn([C@H]2C[C@H](O)[C@@H](CO)O2)c(=O)[nH]1 [UdR, 2-deoxyuridine] | -0.131 | 0.05 | 0.03 | Log P+ [1, 5]: -1.48 |
| O=c1[nH]c(=O)n([C@H]2C[C@H](O)[C@@H](CO)O2)cc1I [IUdR, 5-iodo-2'-deoxy-uridine] | -0.089 | 0.11 | 0.14 | Selectivity+ Sensitivity*/(substrate/TdR) for RG2 (HSV1-TK [3]): 0.002; Sensitivity* Δ(substrate/TdR)/Δ(HSV1TK mRNA/S28 RNA IOD) (HSV1-TK [3]): 0.0011; Selectivity+ Sensitivity*/(uptake in RG2 tumor) (RG2TK+ and RG2 tumors; RG2TK+/RG2 i.c. tumors): 0.009; Sensitivity* (uptake in RG2TK+ tumor - uptake in RG2 tumor)/(HSV1TK mRNA/S28 RNA IOD in RG2TK+ cells) (RG2TK+ and RG2 tumors; RG2TK+/RG2 i.c. tumors): 0.0001; Selectivity+ Sensitivity*/(uptake in RG2 tumor) (RG2TK+ and RG2 tumors; RG2TK+/RG2 s.c. tumors): 0.020; Sensitivity* (uptake in RG2TK+ tumor - uptake in RG2 tumor)/(HSV1TK mRNA/S28 RNA IOD in RG2TK+ cells) (RG2TK+ and RG2 tumors; RG2TK+/RG2 s.c. tumors): 0.0007; Log P+ [1, 5]: -0.76; Selectivity+ Sensitivity*/(substrate/TdR) for RG2 (HSV1-TK [4]; Data from FIG. 5): 0.006; Sensitivity* Δ(substrate/TdR)/Δ(HSV1TK mRNA/S28 RNA IOD) (HSV1-TK [4]; Data from FIG. 5): 0.0029; accumulation in bulk RG2TK+ cells relative to wild-type RG2 cells (HSV1-TK [4]; normalized to TdR, FIGS. 4 and 5B): 1.2 fold |
| CCc1cn([C@@H]2O[C@H](CO)[C@@H](O)[C@H]2F)c(=O)[nH]c1=O [FERU, 5-ethyl-2'-fluoro-1-β-D-ribofuranosyl-uracil] |  |  |  | lipophilicity and blood-brain barrier permeability compared with FIAU [1]: higher lipophilicity and better permeability through the blood-brain barrier |
| CCc1cn([C@@H]2O[C@H](CO)[C@@H](O)[C@@H]2F)c(=O)[nH]c1=O [FEAU, 2'-fluoro-5-ethyl-1-β-D-arabinofuranosyl-uracil] |  |  | 0.31 | lipophilicity and blood-brain barrier permeability compared with FIAU [1]: higher lipophilicity and better permeability through the blood-brain barrier |
| O=c1[nH]c(=O)n([C@@H]2O[C@H](CO)[C@@H](O)[C@H]2F)cc1C=CI [FIVRU, 2'-fluoro-5-iodovinyl-1-β-D-ribofuranosyl-uracil] | 1.21 | 13.03 |  | lipophilicity and blood-brain barrier permeability compared with FIAU [1]: higher lipophilicity and better permeability through the blood-brain barrier |
| O=c1[nH]c(=O)n([C@@H]2O[C@H](CO)[C@@H](O)[C@@H]2F)cc1C=CI [FIVAU, 2'-fluoro-5-iodovinyl-1-β-D-arabinofuranosyl-uracil] |  |  |  | lipophilicity and blood-brain barrier permeability compared with FIAU [1]: higher lipophilicity and better permeability through the blood-brain barrier |
| O=c1[nH]c(=O)n([C@@H]2O[C@H](CO)[C@@H](O)[C@H]2F)cc1F [FFRU] |  | 0.02 |  |  |
| O=C(O)CN(CCN(CC(=O)O)CC(=O)O)CCN(CC(=O)O)CC(=O)O [DTPA] | -3.89 |  | 0.00009 |  |

From US5703056A, “Non-invasive imaging of gene transfer” (priority 1995, dated 1997)
